Where two headings read alike, the source gives them in different places.
Key:
[1] = biological target: Ls-AChBP; details: read-out: NS9283 Ki at Ls-AChBP; ref Olsen et al., 2014; cited from earlier work
[2] = biological target: (α4)3(β2)2 nAChR from α4 and β2 (10:1) (Homo sapiens, UniProt P17787+P43681); test: two-electrode voltage-clamp, X. laevis oocytes, α4 and β2 cRNA 10:1; type: cell-based
[3] = tested on: (α4)2(β2)3 nAChR from α4 and β2 (1:4); details: 10 µM ACh, ref Timmermann et al. (2012); cited from earlier work
[4] = biological target: α4β2 nAChR from β-21a-α-α^VFL-β-α (Homo sapiens, UniProt P17787+P43681, H142V/Q150F/T152L); test: two-electrode voltage-clamp, oocytes, pentameric β-21a-α-α^VFL-β-α; type: cell-based
[5] = biological target: α4β2 nAChR from β-6-α-9-β-6-α and α4^VFL (1:5) (Homo sapiens, UniProt P17787+P43681, H142V/Q150F/T152L); test: two-electrode voltage-clamp, oocytes, β-6-α-9-β-6-α and α4^VFL 1:5; type: cell-based
[6] = biological target: α4β2 nAChR from β-3a-α and α4 (1:1) (Homo sapiens, UniProt P17787+P43681); test: two-electrode voltage-clamp, oocytes, β-3a-α and α4; type: cell-based; details: β-3a-α + α4; biphasic fit
[7] = biological target: α4β2 nAChR from β-3a-α alone (Homo sapiens, UniProt P17787+P43681); test: two-electrode voltage-clamp, oocytes, β-3a-α alone; type: cell-based
[8] = biological target: α4β2 nAChR from β-6-α and α4^VFL (1:25) (Homo sapiens, UniProt P17787+P43681, H142V/Q150F/T152L); test: two-electrode voltage-clamp, oocytes, β-6-α and α4^VFL 1:25; type: cell-based; details: β-6-α + α4^VFL 1:25; biphasic fit
[9] = biological target: α4β2 nAChR from β-6-α-9-β-6-α and α4 (1:1) (Homo sapiens, UniProt P17787+P43681); test: two-electrode voltage-clamp, oocytes, β-6-α-9-β-6-α and α4; type: cell-based; details: β-6-α-9-β-6-α + α4
[10] = biological target: α4β2 nAChR from β-6a-α and α4 (1:1) (Homo sapiens, UniProt P17787+P43681); test: two-electrode voltage-clamp, oocytes, β-6a-α and α4; type: cell-based; details: β-6a-α + α4; biphasic fit
[11] = biological target: α4β2 nAChR from β-0a-α and α4 (1:1) (Homo sapiens, UniProt P17787+P43681); test: two-electrode voltage-clamp, oocytes, β-0a-α and α4; type: cell-based; details: β-0a-α + α4; biphasic fit
[12] = biological target: α4β2 nAChR from β-6-α-9-β-6-α and α4^VFL (1:25) (Homo sapiens, UniProt P17787+P43681, H142V/Q150F/T152L); test: two-electrode voltage-clamp, oocytes, β-6-α-9-β-6-α and α4^VFL 1:25; type: cell-based; details: β-6-α-9-β-6-α + α4^VFL 1:25; biphasic fit
Sequence of α4β2 nAChR from β-6-α-9-β-6-α and α4^VFL (1:25) (P17787 26-502): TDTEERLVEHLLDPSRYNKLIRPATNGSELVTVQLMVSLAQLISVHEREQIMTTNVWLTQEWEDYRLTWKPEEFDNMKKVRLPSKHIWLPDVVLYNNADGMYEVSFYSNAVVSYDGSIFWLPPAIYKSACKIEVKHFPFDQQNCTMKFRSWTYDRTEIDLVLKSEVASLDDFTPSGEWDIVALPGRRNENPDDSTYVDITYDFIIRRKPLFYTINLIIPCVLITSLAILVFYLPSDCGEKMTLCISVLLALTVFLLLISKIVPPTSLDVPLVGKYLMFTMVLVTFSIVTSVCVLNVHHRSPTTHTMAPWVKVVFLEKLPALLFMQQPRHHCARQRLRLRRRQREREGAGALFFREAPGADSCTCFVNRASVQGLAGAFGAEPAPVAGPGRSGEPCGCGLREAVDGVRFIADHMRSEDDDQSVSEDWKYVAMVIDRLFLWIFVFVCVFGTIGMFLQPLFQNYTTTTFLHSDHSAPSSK
Sequence of α4β2 nAChR from β-6-α-9-β-6-α and α4^VFL (1:25) (P43681 27-627, stated change not applied): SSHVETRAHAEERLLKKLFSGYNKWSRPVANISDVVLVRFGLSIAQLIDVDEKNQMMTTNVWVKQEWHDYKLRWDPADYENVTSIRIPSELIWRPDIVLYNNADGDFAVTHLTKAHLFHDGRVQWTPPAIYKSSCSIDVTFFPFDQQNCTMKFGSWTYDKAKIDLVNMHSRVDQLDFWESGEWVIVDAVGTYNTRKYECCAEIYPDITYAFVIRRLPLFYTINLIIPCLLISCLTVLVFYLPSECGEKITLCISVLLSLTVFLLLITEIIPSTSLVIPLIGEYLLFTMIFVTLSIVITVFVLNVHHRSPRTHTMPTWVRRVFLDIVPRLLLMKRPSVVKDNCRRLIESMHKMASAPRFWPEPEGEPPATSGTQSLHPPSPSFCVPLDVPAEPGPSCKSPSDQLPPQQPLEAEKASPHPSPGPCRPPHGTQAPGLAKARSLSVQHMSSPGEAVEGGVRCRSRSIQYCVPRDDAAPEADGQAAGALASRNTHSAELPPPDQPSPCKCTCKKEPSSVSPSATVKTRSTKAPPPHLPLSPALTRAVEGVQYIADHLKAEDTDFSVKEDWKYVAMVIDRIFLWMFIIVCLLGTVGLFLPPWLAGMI
Sequence of α4β2 nAChR from β-6-α-9-β-6-α and α4^VFL (1:25) (P17787 26-502): as the sequence (P17787 26-502) above
Sequence of α4β2 nAChR from β-6-α-9-β-6-α and α4^VFL (1:25) (P43681 27-627, stated change not applied): as the sequence (P43681 27-627, stated change not applied) above
Sequence of α4β2 nAChR from β-6-α-9-β-6-α and α4^VFL (1:25) (P43681 34-627 H142V/Q150F/T152L limits assumed): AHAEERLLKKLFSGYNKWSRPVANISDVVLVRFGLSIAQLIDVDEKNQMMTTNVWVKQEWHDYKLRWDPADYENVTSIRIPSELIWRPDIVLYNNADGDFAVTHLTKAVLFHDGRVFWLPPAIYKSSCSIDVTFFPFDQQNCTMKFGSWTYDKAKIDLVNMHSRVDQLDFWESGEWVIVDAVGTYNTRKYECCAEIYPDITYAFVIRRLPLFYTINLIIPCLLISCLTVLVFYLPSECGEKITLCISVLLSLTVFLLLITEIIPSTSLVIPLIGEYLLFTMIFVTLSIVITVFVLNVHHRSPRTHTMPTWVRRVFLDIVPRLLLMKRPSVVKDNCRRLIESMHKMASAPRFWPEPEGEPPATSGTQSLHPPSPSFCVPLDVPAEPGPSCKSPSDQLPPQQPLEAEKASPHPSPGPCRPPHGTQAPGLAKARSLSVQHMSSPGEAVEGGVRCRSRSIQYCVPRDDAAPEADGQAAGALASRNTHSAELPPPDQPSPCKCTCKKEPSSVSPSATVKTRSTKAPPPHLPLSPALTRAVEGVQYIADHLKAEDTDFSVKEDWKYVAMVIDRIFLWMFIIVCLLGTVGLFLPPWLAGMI

Sequence of (α4)3(β2)2 nAChR from α4 and β2 (10:1) (P43681 27-627): as the sequence (P43681 27-627, stated change not applied) above
Sequence of (α4)3(β2)2 nAChR from α4 and β2 (10:1) (P17787 26-502): as the sequence (P17787 26-502) above
Sequence of α4β2 nAChR from β-21a-α-α^VFL-β-α (P17787 26-502): as above
Sequence of α4β2 nAChR from β-21a-α-α^VFL-β-α (P43681 27-627, stated change not applied): as the sequence (P43681 27-627, stated change not applied) above
Sequence of α4β2 nAChR from β-21a-α-α^VFL-β-α (P43681 27-627 H142V/Q150F/T152L): as the sequence (P43681 27-627, stated change not applied) above, with H116V, Q124F, T126L counted along it
Sequence of α4β2 nAChR from β-21a-α-α^VFL-β-α (P17787 26-502): as the sequence (P17787 26-502) above
Sequence of α4β2 nAChR from β-21a-α-α^VFL-β-α (P43681 27-627, stated change not applied): as the sequence (P43681 27-627, stated change not applied) above
Sequence of α4β2 nAChR from β-6-α-9-β-6-α and α4^VFL (1:5) (P17787 26-502): as the sequence (P17787 26-502) above
Sequence of α4β2 nAChR from β-6-α-9-β-6-α and α4^VFL (1:5) (P43681 27-627, stated change not applied): as the sequence (P43681 27-627, stated change not applied) above
Sequence of α4β2 nAChR from β-6-α-9-β-6-α and α4^VFL (1:5) (P43681 34-627 H142V/Q150F/T152L limits assumed): as the sequence (P43681 34-627 H142V/Q150F/T152L limits assumed) above

For `N#Cc1cccc(-c2nc(-c3cccnc3)no2)c1` [NS9283, 3-(3-(pyridine-3-yl)-1,2,4-oxadiazol-5-yl)benzonitrile], the Ki [1] is given as 67 µM, the EC50 [2] is given as 5.01 µM and the Emax ([2]; read-out: NS9283 Emax) is given as 860 ± 60%. For the same compound, the “NS9283 effect on AChcontrol-evoked current amplitudes at […] or higher” value [3] was “inhibition”, the EC50 ([4]; NS9283 pEC50, β-21a-α-α^VFL-β-α, coapplied with 10 µM ACh) was 10 µM and the Emax ([4]; read-out: NS9283 Emax) was 75 ± 9%. The “NS9283 E31.6 µM” value ([4]; β-21a-α-α^VFL-β-α, […] NS9283 + 10 µM ACh, % change from AChcontrol current) was 55 ± 6% and the EC50 ([5]; NS9283 pEC50, β-6-α-9-β-6-α + α4^VFL 1:5, coapplied with 10 µM ACh) was 7.94 µM.
With `CC(=O)OCC[N+](C)(C)C` [ACh, acetylcholine] the “ACh Frac (first component fraction)” value [6] was 0.11 ± 0.02, the Emax ([7]; read-out: ACh Emax) was 103 ± 1% and the “ACh Frac (first component fraction)” value ([7]; β-3a-α alone, biphasic fit) was 0.64 ± 0.11. For the same compound, the Emax ([2]; read-out: ACh Emax) was 102 ± 1%, the “ACh Frac (first component fraction)” value ([2]; α4+β2 10:1, biphasic fit) was 0.11 ± 0.03 and the “ACh Frac (first component fraction)” value [8] was 0.39 ± 0.05. The “mean AChmax-evoked currents” value [9] was 1–2 μA, the “ACh Frac (first component fraction)” value ([9]; biphasic fit) was 0.035 ± 0.020 and the “ACh Frac (first component fraction)” value [10] was 0.059 ± 0.018. For the same compound, the “ACh Frac (first component fraction)” value [11] was 0.053 ± 0.028, the Emax ([4]; read-out: ACh Emax) was 102 ± 2% and the “ACh Frac (first component fraction)” value ([4]; β-21a-α-α^VFL-β-α, biphasic fit) was 0.46 ± 0.18. For the same compound, the “ACh Frac (first component fraction)” value [12] was 0.40 ± 0.12 and the “ACh Frac (first component fraction)” value ([5]; β-6-α-9-β-6-α + α4^VFL 1:5, biphasic fit) was 0.32 ± 0.13.

Reference: article PMC5839718 (The Journal of General Physiology, 2018)
